Data published in US20130005824A1, “TREATMENT OF ISCHEMIC TISSUE” (The Research Foundation of State University of New York, priority 2009, published 2013).
Read-outs that look alike come from different tables or passages of the source.

How the values were obtained:
[1] = tested on: hamster cheek pouch arterioles (arcade arteriole and terminal arteriolar feed); test: Microvascular response (arteriolar diameter change) to locally applied curcumin in hamster cheek pouch tissue, intravital microscopy; format: in vivo; conditions: for EC50: Mesocricetus auratus
rat comb burn model = test: Burn injury progression in the rat hot comb burn model, intravenous curcumin; format: in vivo; conditions: for interspaces that progressed to full thickness necrosis, histologic analysis: day 7, control 67%
Description: In this study, we determined the effects of curcumin on burn progression in the rat hot comb model. […] Pure curcumin (99.9% as determined by HPLC and mass spectroscopy analysis) produced under GMP was acquired from ChromaDex, Inc for the studies described below.
Animals were randomized to receive one of six intravenous doses of curcumin (0.3, 1.0, 3.0, 10, 30, or 100 μg/kg) in 1 ml of phosphate buffered saline (PBS) or PBS alone (buffer control) administered via the tail vein at 1 and 24 hours after injury. […] Full-thickness biopsies from the interspaces 7 days after injury were evaluated for evidence of necrosis after H&E staining. The percentages of interspaces that progressed to necrosis were compared with chi-squared (χ2) tests. At the seventh day, the number of interspaces that processed to full thickness necrosis was 67% for control, 58, 53, 37, 63, 53, and 26% for 0.1, 0.3, 1, 3, 10, 30 and 100 μg/kg curcumin respectively as determined by histologic analysis. Similar results were obtained for the macroscopic evaluation at day 2, 5, and 7. […] The same experiment was repeated a second time and gave essentially the same results.

[2] = curcumin alone, similar for arcade and feed

COc1cc(/C=C/C(=O)CC(=O)/C=C/c2ccc(O)c(OC)c2)ccc1O [curcumin, (E,E)-1,7-bis (4-hydroxy-3-methoxyphenyl)-1,6-heptadiene-3,5,-dione]
curcumin-induced dilation remaining with LNNA ([1]; 10^−4M LNNA, curcumin 10^−10 though 10^−7 M): significant curcumin-induced dilation remained | curcumin-induced dilation remaining with LNNA ([1]; 10^−5M LNNA, 10^−12 to 10^−10 M curcumin): a significant dilation remained | curcumin-induced dilation with LNNA ([1]; 10^−5M LNNA, terminal feed arterioles, similar pattern in arcade): attenuated | EC50 ([1]; curcumin alone, micropipette 60 s, similar for arcade and feed, read-out: logEC50 for dilation (converted)): 0.316 nM | EC50 ([1]; curcumin alone, similar for arcade and feed, read-out: logEC50 for constriction (converted)): 3.98 nM | EC50 ([1]; phentolamine 10^−5 M, constrictor component removed, read-out: logEC50, dilation to curcumin with phentolamine (converted)): 0.1 ± 0.004 nM | EC50 ([1]; propranolol 10^−5 M, dilation component removed, read-out: logEC50, constriction to curcumin with propranolol (converted)): 0.01 nM | effect of simultaneous PD142893 on the curcumin response ([1]; PD142893 (endothelin antagonist) 10^−5 M): no effect | effect of PD142893 on maximal dilation and constriction to curcumin ([1]; PD142893 (endothelin antagonist), no effect on baseline diameters): diminished the maximal dilation and enhanced the maximal constriction | curcumin-induced dilation with cAMP blockade ([1]; Rp-8-br-cAMPS, curcumin 10^−6M, arcade, but not terminal arterioles): significantly suppressed | curcumin-induced constriction with cAMP blockade ([1]; Rp-8-br-cAMPS, curcumin 10^−8M, arcade, but not terminal arterioles): attenuated | curcumin-induced dilation with cGMP blockade ([1]; Rp-8-br-cGMPS, terminal and arcade arterioles): prevented all curcumin-induced dilation | local response after microvascular preconditioning ([1]; after deliberate microvascular preconditioning): predominantly constriction | effect of simultaneous atropine on the curcumin response ([1]; atropine (muscarinic antagonist) 10^−7 M): no effect | effect of atropine on maximal dilation and constriction to curcumin ([1]; atropine (muscarinic antagonist), no effect on baseline diameters): diminished the maximal dilation and enhanced the maximal constriction | constrictor and dilatory (cGMP and cAMP mediated) responses before and after repeated exposure (potential cytotoxicity) ([1]; baseline diameter recovery and tone after repeated 60 second exposures): unchanged | terminal arteriole diameter, 60 second time-course ([1]; curcumin 10^−6M continuously applied): initial vasodilation at 20 seconds was followed by vasoconstriction that peaked at 60 seconds | terminal arteriole diameter, 60 second time-course ([1]; curcumin 10^−10M continuously applied): sustained dilation | response to curcumin with propranolol and phentolamine together ([1]; curcumin 10^−10 M, 10^−8M and 10^−6M, terminal and arcade arterioles): blocked all response | peak constriction [1, 2]: −15±5% | peak dilation [1, 2]: +40±8% | peak dilation, terminal versus arcade arterioles ([1]; dose-response 10^−13M to 10^−3M, 20 s and 60 s): significantly greater for terminal arterioles than for arcade arterioles | concentration inducing vasodilation after versus before preconditioning ([1]; in vivo studies to date, after preconditioning): lower concentrations | effect on arteriolar diameter during induced endothelial dysfunction ([1]; nitro-arginine added to the tissue bath): the dilation component was potentiated and constriction was attenuated | peak dilation to curcumin with phentolamine, arcade ([1]; phentolamine 10^−5 M, arcade arteriole): +34±9 | peak dilation to curcumin with phentolamine, feed ([1]; phentolamine 10^−5 M, terminal feed arteriole): +65 +10 | peak constriction to curcumin with propranolol ([1]; propranolol 10^−5 M): −30 ±7% | constriction response to curcumin with phentolamine ([1]; terminal arteriole, phentolamine 10^−5M): abolished | dilation response to curcumin with propranolol ([1]; terminal arteriole, propranolol 10^−5M): abolished | progression to necrosis compared to control (rat comb burn model; 3 μg/kg and 100 μg/kg i.v., p<0.01, macroscopic evaluation and histologic analysis): significantly less progression to necrosis | interspaces that progressed to full thickness necrosis, histologic analysis (rat comb burn model; fifth value listed (30 μg/kg by method)): 53% | interspaces that progressed to full thickness necrosis, histologic analysis (rat comb burn model; fourth value listed (10 μg/kg by method)): 63% | interspaces that progressed to full thickness necrosis, histologic analysis (rat comb burn model; i.v. at 1 and 24 h after injury, first value listed (0.3 μg/kg by method, 0.1 μg/kg by the sentence)): 58% | interspaces that progressed to full thickness necrosis, histologic analysis (rat comb burn model; last value listed (100 μg/kg)): 26% | interspaces that progressed to full thickness necrosis, histologic analysis (rat comb burn model; second value listed (1 μg/kg by method)): 53% | interspaces that progressed to full thickness necrosis, histologic analysis (rat comb burn model; third value listed (3 μg/kg by method)): 37%
